{"source": "ChEMBL document CHEMBL5543145", "about": "“Discovery of the First-in-Class G9a/GLP PROTAC Degrader” (J Med Chem, 2024)", "note": "pIC50: −log10 of the molar value. Active and inactive are the calls of the source. The calls are words filed in the database; no cut-off is given here."}
{"target": "T1, von Hippel-Lindau disease tumor suppressor/Histone-lysine N-methyltransferase EHMT1 (Homo sapiens, UniProt Q9H9B1+P40337)", "T1 sequence (P40337 whole entry partner)": "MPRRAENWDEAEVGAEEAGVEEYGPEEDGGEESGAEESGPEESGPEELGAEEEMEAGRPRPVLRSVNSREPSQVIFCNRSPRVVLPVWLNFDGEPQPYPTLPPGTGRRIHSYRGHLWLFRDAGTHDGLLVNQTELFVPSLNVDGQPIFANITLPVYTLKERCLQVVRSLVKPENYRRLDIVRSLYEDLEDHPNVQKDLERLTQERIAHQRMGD", "T1 sequence (Q9H9B1 2-1298 limits assumed)": "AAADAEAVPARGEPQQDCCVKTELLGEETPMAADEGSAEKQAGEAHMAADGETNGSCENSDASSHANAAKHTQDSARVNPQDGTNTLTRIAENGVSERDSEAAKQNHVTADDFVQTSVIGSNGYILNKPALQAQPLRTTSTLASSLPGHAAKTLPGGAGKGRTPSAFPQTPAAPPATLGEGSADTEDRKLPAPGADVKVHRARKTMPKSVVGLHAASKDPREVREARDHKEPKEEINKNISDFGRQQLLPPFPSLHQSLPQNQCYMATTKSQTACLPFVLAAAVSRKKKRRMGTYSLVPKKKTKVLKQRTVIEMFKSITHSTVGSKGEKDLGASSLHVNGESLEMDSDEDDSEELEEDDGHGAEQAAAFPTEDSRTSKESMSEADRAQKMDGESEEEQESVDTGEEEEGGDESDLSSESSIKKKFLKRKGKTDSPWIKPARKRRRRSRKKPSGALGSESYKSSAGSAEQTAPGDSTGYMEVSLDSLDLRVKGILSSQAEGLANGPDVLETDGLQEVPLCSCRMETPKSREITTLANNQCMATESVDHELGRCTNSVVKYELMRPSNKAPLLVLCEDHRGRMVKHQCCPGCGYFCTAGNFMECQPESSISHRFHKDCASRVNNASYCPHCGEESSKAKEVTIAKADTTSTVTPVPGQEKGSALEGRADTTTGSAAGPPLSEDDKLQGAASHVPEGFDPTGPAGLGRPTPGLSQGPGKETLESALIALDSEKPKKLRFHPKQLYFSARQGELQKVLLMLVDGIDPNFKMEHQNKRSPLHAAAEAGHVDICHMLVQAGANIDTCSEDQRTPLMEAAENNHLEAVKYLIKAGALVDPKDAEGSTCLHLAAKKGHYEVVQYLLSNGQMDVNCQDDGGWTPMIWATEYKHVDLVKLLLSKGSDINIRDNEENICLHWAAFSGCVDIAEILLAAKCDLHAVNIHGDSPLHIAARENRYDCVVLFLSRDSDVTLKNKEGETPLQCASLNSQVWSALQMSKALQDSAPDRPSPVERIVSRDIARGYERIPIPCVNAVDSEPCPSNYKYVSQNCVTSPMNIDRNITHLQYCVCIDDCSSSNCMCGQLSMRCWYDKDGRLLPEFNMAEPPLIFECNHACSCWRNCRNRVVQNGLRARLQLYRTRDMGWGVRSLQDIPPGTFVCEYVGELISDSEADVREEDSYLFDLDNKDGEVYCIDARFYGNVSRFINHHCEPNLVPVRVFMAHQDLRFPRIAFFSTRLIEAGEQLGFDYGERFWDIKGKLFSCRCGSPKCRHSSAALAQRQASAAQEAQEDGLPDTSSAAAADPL", "experiment": "PROTAC activity at GLP/VHL in human 22Rv1 cells assessed as effect on GLP level upto 3 uM measured for 24 hrs by Western blot analysis", "type": "cell-based", "settings": "not given"}
{"smiles": "COc1cc2c(NC3CCN(CCCC(=O)NCCCCCCCCCCCC(=O)N[C@H](C(=O)N4C[C@@H](O)C[C@@H]4C(=O)NCc4ccc(-c5scnc5C)cc4)C(C)(C)C)CC3)nc(N3CCC(F)(F)CC3)nc2cc1OCCCN1CCCC1", "Activity": "inactive"}
{"test_system": "K562", "experiment": "Cytotoxicity against human K562 cells assessed as reduction in cell viability incubated for 8 days", "type": "functional, cell-based", "settings": "K562, 192 h"}
{"smiles": "COc1cc2c(NC3CCN(C(C)C)CC3)nc(N3CCC(F)(F)CC3)nc2cc1OCCCN1CCCC1", "pIC50": "< 5.00"}
{"target": "T1, von Hippel-Lindau disease tumor suppressor/Histone-lysine N-methyltransferase EHMT1", "experiment": "PROTAC activity at GLP/VHL in human 22Rv1 cells assessed as induction of GLP degradation at 0.3 uM incubated for 24 hrs by Western blot analysis relative to control", "type": "cell-based", "settings": "not given", "units": {"Emax": "%"}}
{"smiles": "COc1cc2c(NC3CCN(CCCC(=O)NCCCCCCCCCC(=O)N[C@H](C(=O)N4C[C@H](O)C[C@H]4C(=O)NCc4ccc(-c5scnc5C)cc4)C(C)(C)C)CC3)nc(N3CCC(F)(F)CC3)nc2cc1OCCCN1CCCC1", "Emax": 84}
{"smiles": "COc1cc2c(NC3CCN(CCCC(=O)NCCOCCC(=O)N[C@H](C(=O)N4C[C@H](O)C[C@H]4C(=O)NCc4ccc(-c5scnc5C)cc4)C(C)(C)C)CC3)nc(N3CCC(F)(F)CC3)nc2cc1OCCCN1CCCC1", "Emax": "< 10"}
{"smiles": "COc1cc2c(NC3CCN(CCCC(=O)NCCC(=O)N[C@H](C(=O)N4C[C@H](O)C[C@H]4C(=O)NCc4ccc(-c5scnc5C)cc4)C(C)(C)C)CC3)nc(N3CCC(F)(F)CC3)nc2cc1OCCCN1CCCC1", "Emax": 54}
{"smiles": "COc1cc2c(NC3CCN(CCCC(=O)NCCCCCC(=O)N[C@H](C(=O)N4C[C@H](O)C[C@H]4C(=O)NCc4ccc(-c5scnc5C)cc4)C(C)(C)C)CC3)nc(N3CCC(F)(F)CC3)nc2cc1OCCCN1CCCC1", "Emax": "< 5"}
{"smiles": "COc1cc2c(NN3CCN(CCCC(=O)NCCCCCCCCC(=O)N[C@H](C(=O)N4C[C@H](O)C[C@H]4C(=O)NCc4ccc(-c5scnc5C)cc4)C(C)(C)C)CC3)nc(N3CCC(F)(F)CC3)nc2cc1OCCCN1CCCC1", "Emax": "< 27"}
{"test_system": "K562", "experiment": "Cytotoxicity against human K562 cells assessed as growth inhibition incubated for 7 days", "type": "functional", "settings": "time 7.0 day"}
{"smiles": "COc1cc2c(NC3CCN(C(C)C)CC3)nc(N3CCC(F)(F)CC3)nc2cc1OCCCN1CCCC1", "Activity": "inactive"}
{"target": "T2, von Hippel-Lindau disease tumor suppressor/Histone-lysine N-methyltransferase EHMT2 (Homo sapiens, UniProt Q96KQ7+P40337)", "T2 sequence (P40337 whole entry partner)": "as the sequence (P40337 whole entry partner) above", "T2 sequence (Q96KQ7 2-1210 limits assumed)": "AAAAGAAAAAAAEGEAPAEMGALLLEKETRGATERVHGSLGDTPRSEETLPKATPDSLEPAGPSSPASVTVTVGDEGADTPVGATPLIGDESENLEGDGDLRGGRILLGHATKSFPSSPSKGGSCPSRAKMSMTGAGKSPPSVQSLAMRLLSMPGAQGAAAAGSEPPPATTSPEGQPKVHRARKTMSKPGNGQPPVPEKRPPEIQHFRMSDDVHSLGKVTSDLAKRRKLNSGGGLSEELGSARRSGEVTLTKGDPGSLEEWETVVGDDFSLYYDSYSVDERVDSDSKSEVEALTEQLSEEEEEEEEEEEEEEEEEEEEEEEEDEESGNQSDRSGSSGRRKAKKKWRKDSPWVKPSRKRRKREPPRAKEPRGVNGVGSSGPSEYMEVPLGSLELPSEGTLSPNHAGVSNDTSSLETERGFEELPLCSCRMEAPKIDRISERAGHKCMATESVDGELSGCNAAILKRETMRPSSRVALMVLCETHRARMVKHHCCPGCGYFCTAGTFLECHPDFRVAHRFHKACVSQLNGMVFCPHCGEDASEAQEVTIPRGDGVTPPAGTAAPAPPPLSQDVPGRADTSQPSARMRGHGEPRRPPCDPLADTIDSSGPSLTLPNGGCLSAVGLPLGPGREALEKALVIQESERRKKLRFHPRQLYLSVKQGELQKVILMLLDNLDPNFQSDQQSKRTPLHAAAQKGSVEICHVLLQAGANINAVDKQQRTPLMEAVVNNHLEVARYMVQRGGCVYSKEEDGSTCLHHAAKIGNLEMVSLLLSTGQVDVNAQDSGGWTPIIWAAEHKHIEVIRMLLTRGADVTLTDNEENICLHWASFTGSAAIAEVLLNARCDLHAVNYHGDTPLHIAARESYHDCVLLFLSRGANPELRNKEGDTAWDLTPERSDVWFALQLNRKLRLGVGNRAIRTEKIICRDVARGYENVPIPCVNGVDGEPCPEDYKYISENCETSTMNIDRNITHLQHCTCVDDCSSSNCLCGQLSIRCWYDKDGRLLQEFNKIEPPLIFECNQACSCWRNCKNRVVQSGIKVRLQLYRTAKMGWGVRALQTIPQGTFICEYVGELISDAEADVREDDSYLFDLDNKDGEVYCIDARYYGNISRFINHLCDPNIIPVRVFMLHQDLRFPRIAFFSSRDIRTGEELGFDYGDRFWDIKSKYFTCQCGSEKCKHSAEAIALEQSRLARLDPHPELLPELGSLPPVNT", "experiment": "PROTAC activity at G9a/VHL in human 22Rv1 cells assessed as induction of G9a degradation at 3 uM incubated for 24 hrs by Western blot analysis relative to control", "type": "cell-based", "settings": "not given", "units": {"Emax": "%"}}
{"smiles": "COc1cc2c(NC3CCN(CCCC(=O)NCCCCCCCCCC(=O)N[C@H](C(=O)N4C[C@H](O)C[C@H]4C(=O)NCc4ccc(-c5scnc5C)cc4)C(C)(C)C)CC3)nc(N3CCC(F)(F)CC3)nc2cc1OCCCN1CCCC1", "Emax": "< 92"}
{"smiles": "COc1cc2c(NC3CCN(CCCC(=O)NCCC(=O)N[C@H](C(=O)N4C[C@H](O)C[C@H]4C(=O)NCc4ccc(-c5scnc5C)cc4)C(C)(C)C)CC3)nc(N3CCC(F)(F)CC3)nc2cc1OCCCN1CCCC1", "Emax": 61}
{"smiles": "COc1cc2c(NC3CCN(CCCC(=O)NCCCCCC(=O)N[C@H](C(=O)N4C[C@H](O)C[C@H]4C(=O)NCc4ccc(-c5scnc5C)cc4)C(C)(C)C)CC3)nc(N3CCC(F)(F)CC3)nc2cc1OCCCN1CCCC1", "Emax": "< 30"}
{"smiles": "COc1cc2c(NN3CCN(CCCC(=O)NCCCCCCCCC(=O)N[C@H](C(=O)N4C[C@H](O)C[C@H]4C(=O)NCc4ccc(-c5scnc5C)cc4)C(C)(C)C)CC3)nc(N3CCC(F)(F)CC3)nc2cc1OCCCN1CCCC1", "Emax": 87}
{"target": "T1, von Hippel-Lindau disease tumor suppressor/Histone-lysine N-methyltransferase EHMT1", "experiment": "PROTAC activity at GLP/VHL in human 22Rv1 cells assessed as induction of GLP degradation at 1 uM incubated for 24 hrs by Western blot analysis", "type": "cell-based", "settings": "not given"}
{"smiles": "COc1cc2c(NC3CCN(C(C)C)CC3)nc(N3CCC(F)(F)CC3)nc2cc1OCCCN1CCCC1", "Activity": "inactive"}
{"target": "T1, von Hippel-Lindau disease tumor suppressor/Histone-lysine N-methyltransferase EHMT1", "experiment": "PROTAC activity at GLP/VHL in human 22Rv1 cells assessed as effect on VHL level at 3 uM incubated for 24 hrs by RT-qPCR analysis", "type": "cell-based", "settings": "not given"}
{"smiles": "COc1cc2c(NC3CCN(C(C)C)CC3)nc(N3CCC(F)(F)CC3)nc2cc1OCCCN1CCCC1", "Activity": "Active"}
{"test_system": "NCI-H1299", "experiment": "Cytotoxicity against human NCI-H1299 cells assessed as growth inhibition incubated for 8 days", "type": "functional", "settings": "NCI-H1299, 192 h, time 8 day", "units": {"GI50": "µM"}}
{"smiles": "COc1cc2c(NC3CCN(C(C)C)CC3)nc(N3CCC(F)(F)CC3)nc2cc1OCCCN1CCCC1", "GI50": "> 10"}
{"target": "T2, von Hippel-Lindau disease tumor suppressor/Histone-lysine N-methyltransferase EHMT2", "experiment": "PROTAC activity at G9a/VHL in human 22Rv1 cells assessed as induction of G9a degradation at 0.3 uM incubated for 24 hrs by Western blot analysis relative to control", "type": "cell-based", "settings": "not given", "units": {"Emax": "%"}}
{"smiles": "COc1cc2c(NC3CCN(CCCC(=O)NCCCCCCCCCC(=O)N[C@H](C(=O)N4C[C@H](O)C[C@H]4C(=O)NCc4ccc(-c5scnc5C)cc4)C(C)(C)C)CC3)nc(N3CCC(F)(F)CC3)nc2cc1OCCCN1CCCC1", "Emax": 67}
{"smiles": "COc1cc2c(NC3CCN(CCCC(=O)NCCC(=O)N[C@H](C(=O)N4C[C@H](O)C[C@H]4C(=O)NCc4ccc(-c5scnc5C)cc4)C(C)(C)C)CC3)nc(N3CCC(F)(F)CC3)nc2cc1OCCCN1CCCC1", "Emax": 66}
{"target": "T1, von Hippel-Lindau disease tumor suppressor/Histone-lysine N-methyltransferase EHMT1", "experiment": "PROTAC activity at GLP/VHL in human 22Rv1 cells assessed as induction of GLP degradation at 3 uM incubated for 24 hrs by Western blot analysis relative to control", "type": "cell-based", "settings": "not given", "units": {"Emax": "%"}}
{"smiles": "COc1cc2c(NC3CCN(CCCC(=O)NCCCCCCCCCC(=O)N[C@H](C(=O)N4C[C@H](O)C[C@H]4C(=O)NCc4ccc(-c5scnc5C)cc4)C(C)(C)C)CC3)nc(N3CCC(F)(F)CC3)nc2cc1OCCCN1CCCC1", "Emax": "< 96"}
{"smiles": "COc1cc2c(NC3CCN(CCCC(=O)NCCOCCC(=O)N[C@H](C(=O)N4C[C@H](O)C[C@H]4C(=O)NCc4ccc(-c5scnc5C)cc4)C(C)(C)C)CC3)nc(N3CCC(F)(F)CC3)nc2cc1OCCCN1CCCC1", "Emax": 88}
{"smiles": "COc1cc2c(NC3CCN(CCCC(=O)NCCC(=O)N[C@H](C(=O)N4C[C@H](O)C[C@H]4C(=O)NCc4ccc(-c5scnc5C)cc4)C(C)(C)C)CC3)nc(N3CCC(F)(F)CC3)nc2cc1OCCCN1CCCC1", "Emax": 70}
{"smiles": "COc1cc2c(NC3CCN(CCCC(=O)NCCCCCC(=O)N[C@H](C(=O)N4C[C@H](O)C[C@H]4C(=O)NCc4ccc(-c5scnc5C)cc4)C(C)(C)C)CC3)nc(N3CCC(F)(F)CC3)nc2cc1OCCCN1CCCC1", "Emax": "< 19"}
{"smiles": "COc1cc2c(NN3CCN(CCCC(=O)NCCCCCCCCC(=O)N[C@H](C(=O)N4C[C@H](O)C[C@H]4C(=O)NCc4ccc(-c5scnc5C)cc4)C(C)(C)C)CC3)nc(N3CCC(F)(F)CC3)nc2cc1OCCCN1CCCC1", "Emax": 86}
{"test_system": "CWR22R", "experiment": "Cytotoxicity against human 22Rv1 cells assessed as growth inhibition measured for 7 days", "type": "functional", "settings": "22Rv1, 168 h, time 7 day", "units": {"GI50": "µM"}}
{"smiles": "COc1cc2c(NC3CCN(C(C)C)CC3)nc(N3CCC(F)(F)CC3)nc2cc1OCCCN1CCCC1", "GI50": "> 10"}
{"target": "T2, von Hippel-Lindau disease tumor suppressor/Histone-lysine N-methyltransferase EHMT2", "experiment": "PROTAC activity at G9a/VHL in human 22Rv1 cells assessed as effect on G9a level upto 3 uM measured for 24 hrs by Western blot analysis", "type": "cell-based", "settings": "not given"}
{"smiles": "COc1cc2c(NC3CCN(CCCC(=O)NCCCCCCCCCCCC(=O)N[C@H](C(=O)N4C[C@@H](O)C[C@@H]4C(=O)NCc4ccc(-c5scnc5C)cc4)C(C)(C)C)CC3)nc(N3CCC(F)(F)CC3)nc2cc1OCCCN1CCCC1", "Activity": "inactive"}
